The text below walks through data of a melting point compilation (Tetko et al.; mined from patent text by program, amines drawn as free bases though some values may be those of a salt).

As to `CN(C(=O)C(F)(F)F)C1Cc2ccc(C(=O)CCl)cc2C1` (centres undefined), the melting point was 130 to 131 °C.
The figure for `CCOC(=NS(=O)(=O)c1ccccc1OC(F)F)OCC` is 80 to 81 °C; for `O=C(NS(=O)(=O)C=Cc1ccc([N+](=O)[O-])cc1)c1ccccc1` it is 192 to 195 °C; for `Cc1cccc(NC(=O)NCC(=O)N2[C@@H](C(=O)OC(C)(C)C)C[C@H](C(=O)O)[C@H]2c2ccccc2)c1` (racemic) it is 160 °C.
The figure for `O=C1Nc2ccccc2C12COc1cc3nccnc3cc12` (centres undefined) is 206 to 207 °C; for `COc1ccc(C(=O)c2[nH]c(=O)[nH]c2CN(C)C)cc1` it is 165 to 167 °C; for `ON=Cc1ccc2c(c1)ncn2-c1cccc(COCc2ccccn2)c1` it is 154 to 155 °C.
Consider `CCOC(=O)c1cc(Cl)n2nc(-c3ccccc3)cc2n1`, for which the melting point lay in the range of 135 to 137 °C.
The result for `N=C(NCCOc1cccc2[nH]c3ccccc3c12)c1cccs1` reads 180 to 181 °C; that for `COc1ccc(S(=O)(=O)CC(C)=CCOC(C)=O)cc1`, 54 to 56 °C.
`CCCCCCCCCCCCS(=O)CCOc1ccc(CCC(=O)C(F)(F)F)cc1` (centres undefined) yielded a melting point of 98 to 100 °C.
Turning to `CSc1ncccc1NC(=O)CCCCCSc1nc2ccccc2s1`, the melting point lay within 118 to 119 °C.
With `COc1ccc(-c2nn(CC3CCCC3)c(=O)cc2-c2ccncc2)cc1`, the melting point lay within 119 to 120 °C.
The result for `NCCc1ccc(-n2cnc3cnc4ccc(Cl)cc4c32)cc1` reads 140 to 141 °C; that for `Cc1ccc(S(=O)(=O)N2CCCC2c2cccc(F)c2)cc1` (racemic), 116 °C.
The figure for `COC(=O)c1ccc(Cl)cc1NC(=O)CSc1ccc(C)cc1` is 91 to 93 °C; for `O=C1NC(=O)C(Cc2ccc(OCCN3c4ccccc4Oc4ccccc43)cc2)S1` (centres undefined) it is 170 to 172 °C.
The result for `O=C1c2ccccc2C(=O)N1CC(=O)N1c2ccccc2N(Cc2cccnc2)C(=O)[C@H]2CCC[C@H]21` (relative stereo) reads 220 to 223 °C.
The molecule `CCOC(=O)C1=C(C)NC(C)=C(C(=O)OCCN2CCN(C(c3ccc(C)cc3)c3ccc(C)cc3)CC2)C1c1cccc(Cl)c1Cl` (centres undefined) returned a melting point of 85 to 88 °C.
Take `O=C(Cn1nnnc1-c1cc2ccccc2o1)OCCO`: the melting point was in the range of 131 to 135 °C.
For `CCOC(=O)C1C(=O)Nc2ccccc2C1c1ccccc1` (centres undefined), the melting point lay within 178 to 180 °C.
For the molecule `FC(F)(F)c1onc(-c2ccc(Cl)o2)c1-c1ccccc1`, the melting point is 55 to 57 °C.
The figure for `CC(=O)NC1C(C)(C)c2ccc(CCN3CCN(c4nsc5ccccc45)CC3)cc2C1(C)C` (centres undefined) is 75 to 80 °C; for `COc1ccc(C2(C)CCc3cc(OC)ccc3C2(O)C#CCCCCOC2CCCCO2)cc1` (centres undefined) it is 80 to 82 °C; for `Fc1ccc2[nH]c3c(ccc4cc[nH]c43)c2c1` it is over 250 °C.
As to `CN1Cc2c(C(=O)OCCO)ncn2-c2ccc(F)cc2C1=O`, the melting point was in the range of 202 to 204 °C.
`O=C(Nc1ccccc1)c1cc2ccccc2s1` displayed a melting point of 188 °C.
Regarding `Cn1c(CC#N)ccc1C(=O)c1ccccc1Cl`, the melting point lay within 80 to 85 °C.
Turning to `Oc1ccc(-c2nc3ccc(O)cc3o2)cc1`, the melting point was over 300 °C.
Regarding `COC(=O)c1ccc(-n2ccc(C)n2)cc1OC`, the melting point lay within 167 to 169 °C.
For `COc1ccccc1-c1nc2cc(C)ccc2c(=O)[nH]1`, the melting point lay in the range of 165 to 170 °C.
`CS(=O)(=O)C(=C1CN(C(c2ccccc2)c2ccccc2)C1)c1cccc(F)c1`: the melting point amounted to 210 °C.
The molecule `OCC(O)Cc1nccn1CCCCc1ccc(OCc2coc(/C=C/c3ccc(F)cc3)n2)cc1` (centres undefined) registered a melting point of 114 to 116 °C.
Consider `O=C(O)c1ccc(C(=O)Nc2cccc(Nc3nc(-c4cccnc4)cs3)c2)cc1`, for which the melting point is 299 °C.
The result for `CCc1sc2ncnc(N)c2c1-c1ccc(NS(=O)(=O)c2ccccc2)cc1` reads 209 to 210 °C; that for `Cc1ccc(-c2nnc(N3CCC(O)CC3)nc2-c2ccc(C)cc2)cc1`, 167 to 168 °C; that for `CCN(CC)C(=O)c1ccc(C)c(-c2nc(N(C)CCCN(C)C)nc3c2CNC(=O)N3c2c(F)cccc2F)c1`, 106 to 108 °C.
The result for `CN(C)S(=O)(=O)c1ccc2c(c1)C(O)c1ccccc1C=C2` (centres undefined) reads 150 to 152 °C; that for `COC(=O)C1(C)c2ccccc2-c2ccccc21`, 108 to 109 °C.
The result for `COC(=O)Nc1nc2cc(SCC3CC3)ccc2[nH]1` reads 228 to 231 °C.
Turning to `O=C/C=C/c1ccc(C(F)(F)F)cc1`, the melting point lay in the range of 60 to 61 °C.
The result for `CN=C(NC#N)NCCSCc1ccc(CNC)o1` reads 81 to 85 °C; that for `CC1CCCN1CCCN1CCN(CCCN2CCC(F)(F)C2)C1=C(C#N)C#N` (centres undefined), 99 to 102 °C; that for `COC(=O)c1ccc(OCC(O)COc2ccc(Cl)cc2)cc1` (centres undefined), 88 to 90 °C.
The figure for `COc1cc(O)c2c(c1C)C(=O)SCC(=O)N[C@@H](c1nc(C)no1)COC2` is 194 to 196 °C; for `CCCCCCCCCCCCCCCCCC(=O)NCCS` it is 63 to 65 °C.
The result for `Cc1cnc2n1-c1sc(CCCO)cc1C(c1ccccc1Cl)=NC2` reads 131 to 134 °C.
As to `Cc1cc(C)c(-c2cn(C)c3nc(NC(=O)N(C)C)n(C)c(=O)c23)c(C)c1`, the melting point was in the range of 221 to 223 °C.
`CC(C)COc1c(-c2ccc(S(C)(=O)=O)cc2)cnn(CC(F)(F)F)c1=O`: the melting point lay in the range of 108 to 110 °C.
The figure for `COc1cc2[nH]c(=O)n(-c3ccccc3C)c(=O)c2cc1OC` is 282 to 284 °C.
In turn, `CC(=O)NNC(=N)c1ncc([N+](=O)[O-])n1C` gave a melting point of 294 °C.
The result for `CCOC(=O)/C=C/c1ccc(C#Cc2ccc3c(c2)C(C)(C)CCC3(C)C)cc1` reads 116 to 118 °C; that for `Nc1c(CC(=O)O)cc(Cl)cc1Oc1ccccc1F`, 154 to 156 °C; that for `O=C(Oc1cc(OC(=O)c2cc(O)c(O)c(O)c2)c2ccccc2c1)c1cc(O)c(O)c(O)c1`, 163 to 164 °C.
`Cc1ccc(-c2nnc(N3CCOCC3)nc2-c2ccc(C)cc2)cc1` showed a melting point of 190 to 192 °C.
`N#CC1Sc2ccccc2N1C(=O)c1ccc(F)cc1` (centres undefined) yielded a melting point of 150 to 151 °C.
For the molecule `O=C(O)c1ccc(OC2CC2)cc1`, the melting point was 153 to 155 °C.
As to `CCNc1ncn(CC)c2nc(C3CC3)nc1-2`, the melting point lay within 103 to 105 °C.
The result for `CCOC(=O)c1ccsc1NC(=O)NCCN1CCN(c2ccccc2)CC1` reads 117 to 120 °C; that for `Cc1nc(-c2ccc(OC(C)C)cc2)sc1C(=O)O`, 186 to 188 °C; that for `CCOc1cc2ncc(C#N)c(Nc3ccc(OCc4ccccc4)c(Cl)c3)c2cc1NC(=O)CC(CN1CCCC1)N1CCCC1` (centres undefined), 85 to 87 °C.
Regarding `CS(=O)(=O)Nc1ccc(C=O)cc1Sc1ccc(F)cc1F`, the melting point lay in the range of 109 to 111 °C.
The figure for `COc1ccc(CCc2ccc(NC(=O)C(=O)C3=C(O)c4ccccc4SC3)cc2)cc1OC` is 184 to 185 °C; for `CN(C)c1nc2n(n1)Cc1ccccc1-2` it is 164 to 166 °C.
For the molecule `O=C1NC(=O)C2CCCCC12` (centres undefined), the melting point lay within 132 to 136 °C.
The figure for `CC(C)[C@@H]1C[C@@H]([C@H](CC2CCCCC2)N=[N+]=[N-])OC1=O` is 38.5 to 39 °C.
The result for `CCN1C(C(=O)Nc2coc3ccccc3c2=O)C(=O)c2ccccc2S1(=O)=O` (centres undefined) reads 235 to 237 °C; that for `CC(C)c1nc(C(F)(F)F)ccc1C(=O)c1c(S(C)(=O)=O)noc1C1CC1`, 105 to 106 °C; that for `CC(C)COC(=O)N1CCN(c2c(C(=O)N3CCN(C)CC3)c3ccccc3n2-c2ccccc2)CC1`, 132 to 133 °C.
The figure for `O=C(OCc1ccccc1)N1CCOc2cc(Oc3cc(Cl)ncn3)ccc21` is 110 °C; for `CCC1(N)CCN(c2c(F)c(N)c3c(=O)c(C(=O)O)cn(C4CC4)c3c2F)C1` (centres undefined) it is 205 to 206 °C.
The molecule `CCCCCCCNC(=O)Nc1ccccc1CCc1cc(C(C)(C)C)c(O)c(C(C)(C)C)c1` came in with a melting point of 100 °C.
The figure for `O=C1Nc2ccc(Cl)cc2C1(Cl)c1cccc2c1OCO2` (centres undefined) is 241 °C.
Molecule `CCOC(=O)Cc1ccc(OCc2ccccc2)c2c1OCCO2` had a melting point of 86 °C.
The figure for `COc1ccc(CCCNc2c(C)c(C)c3c(c2C)C(c2ccc(C(C)C)cc2)C(C)(C)O3)cc1` (centres undefined) is 62 to 65 °C; for `CCCCN(CCCC)Cc1nc(-c2ncn3c2CN(C)C(=O)c2ccccc2-3)no1` it is 105 to 110 °C.
The result for `C[Si](C)(C)NC(=O)C(Cl)(Cl)Cl` reads 75 to 85 °C; that for `OC(CC(Br)=CBr)(CC(Br)=CBr)Cn1cncn1` (centres undefined), 100 °C; that for `COC(=O)c1cccc2c(C#N)c(OC)ccc12`, 210 to 211 °C.
On to `CNC(=O)Cc1ccccc1[N+](=O)[O-]`, for which the melting point turned out to be 147 °C.
`COc1ccc(C2Nc3ccccc3C(=O)N2c2ccc(F)c(C(F)(F)F)c2)cn1` (centres undefined) showed a melting point of 167 to 168 °C.
The result for `CC1(COCCCOc2ccc(C(=O)O)cc2)COC1` reads 102 °C.
In the case of `COC(=O)c1ccc(C=CC(=O)N2CCc3c([nH]c4ccccc34)C2c2ccc3c(c2)OCO3)cc1` (centres undefined), the melting point came to 211 °C.
With `CN(C)CCCN=C1CC(c2ccc(Cl)cc2Cl)Cc2c1c(=O)c1cc(Cl)ccc1n2O` (centres undefined), the melting point is 172 to 174 °C.
The figure for `CS(=O)(=O)c1ccc(Oc2ccc3[nH]c(C4=NCC(CC(=O)NCC(F)(F)F)S4)cc3c2)cn1` (centres undefined) is 234 to 235 °C; for `CCCc1nc2c(N)nc3ccccc3c2n1OC` it is 210 to 211 °C; for `O=C(CN1CCN(c2ccc([N+](=O)[O-])cc2)CC1)Nc1ccc(Nc2ccccc2)cc1` it is 212 to 213 °C.
With `COc1ccc(S(=O)(=O)N(C(=O)c2snc(Cl)c2Cl)c2ccc(Cl)cc2)cc1`, the melting point was 154 to 158 °C.
The molecule `Cc1ccc(Nc2cc(C)nc(-n3nc(C)cc3C)n2)cc1` yielded a melting point of 135 to 138 °C.

The melting point is the temperature, or range, at which the solid turns liquid.
